# Assay results as given in US20250136606A1, “MODULATORS OF TRPML, THEIR COMPOSITIONS AND METHODS OF USE” (Caraway Therapeutics, Inc., priority 2021, published 2025).
# Key:
# Assay type in all cases: cell-based
# Details in all cases: fluorescent calcium assay
# TRPML1 = TRPML1 (Homo sapiens, UniProt Q9GZU1); test: Fluorescent TRPML1 assay (Fluo4-AM calcium fluorescence in doxycycline-induced HEK-293 Trex cells)
# Procedure, shortened: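 hTRPML1 (mutated for cell-surface expression) in HEK-293 Trex, dox 0.5 ug/mL o/n; Fluo4-AM 1 uM ~60 min, then ~60 min de-esterification, dark; modified Ringer's + 10 mM Ca. Cmpds 20 uM–6 nM final, half-log, n=3. Ex480/Em540; % activity vs ctrls; EC50 by nonlinear regression.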
# TRPML3 = target: T1, TRPML3 (Homo sapiens, UniProt Q8TDD5); test: Fluorescent TRPML3 assay (performed as for TRPML1, substituting the TRPML3 subtype)
# T1 construct: expressed in transfected cells
# T1 sequence (Q8TDD5 1-553): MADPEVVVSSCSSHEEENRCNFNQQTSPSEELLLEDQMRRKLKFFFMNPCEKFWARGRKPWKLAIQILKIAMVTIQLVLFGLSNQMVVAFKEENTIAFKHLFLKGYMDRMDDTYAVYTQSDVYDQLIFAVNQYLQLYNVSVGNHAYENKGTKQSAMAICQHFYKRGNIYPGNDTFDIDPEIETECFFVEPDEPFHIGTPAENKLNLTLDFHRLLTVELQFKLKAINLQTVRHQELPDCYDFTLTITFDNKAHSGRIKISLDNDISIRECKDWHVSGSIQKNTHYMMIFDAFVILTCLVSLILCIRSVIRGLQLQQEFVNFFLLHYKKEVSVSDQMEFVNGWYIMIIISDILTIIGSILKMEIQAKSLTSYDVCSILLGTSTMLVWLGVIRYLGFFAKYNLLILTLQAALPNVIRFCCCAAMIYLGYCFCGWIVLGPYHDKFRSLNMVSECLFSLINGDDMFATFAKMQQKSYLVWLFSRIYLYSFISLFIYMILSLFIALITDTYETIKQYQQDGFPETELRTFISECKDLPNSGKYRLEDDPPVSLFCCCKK
# Procedure, shortened: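 HEK-293 Trex, dox-induced (0.5 ug/mL), mutated for surface expression. Fluo4-AM 1 micromolar load ~60 min, dark; buffer modified Ringer's, 10 mM Ca. Cpds 20 micromolar–6 nanomolar final, half-log, n=3. Read ex 480/em 540; % activity vs controls; EC50 nonlinear fit.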
# TRPML2 = target: T2, TRPML2 (Homo sapiens, UniProt Q8IZK6); test: Fluorescent TRPML2 assay (performed as for TRPML1, substituting the TRPML2 subtype)
# T2 construct: expressed in transfected cells
# T2 sequence (Q8IZK6 1-566): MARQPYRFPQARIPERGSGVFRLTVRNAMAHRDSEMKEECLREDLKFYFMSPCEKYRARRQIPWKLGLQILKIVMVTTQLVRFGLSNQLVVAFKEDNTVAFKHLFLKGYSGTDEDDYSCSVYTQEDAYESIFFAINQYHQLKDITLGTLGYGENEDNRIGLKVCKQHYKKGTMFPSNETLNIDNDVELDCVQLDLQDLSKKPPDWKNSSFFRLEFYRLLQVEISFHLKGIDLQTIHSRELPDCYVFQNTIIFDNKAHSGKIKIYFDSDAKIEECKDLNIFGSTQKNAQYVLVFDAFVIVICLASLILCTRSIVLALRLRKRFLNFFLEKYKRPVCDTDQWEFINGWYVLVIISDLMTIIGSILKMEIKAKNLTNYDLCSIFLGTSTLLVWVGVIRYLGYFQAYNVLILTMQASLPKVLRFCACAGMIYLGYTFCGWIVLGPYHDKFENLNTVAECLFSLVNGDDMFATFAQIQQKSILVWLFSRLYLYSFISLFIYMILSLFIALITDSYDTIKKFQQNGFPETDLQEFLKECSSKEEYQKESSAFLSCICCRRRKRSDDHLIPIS
# Experimental: HEK-293 Trex cells were stably transfected with a construct consisting of the human coding sequence for TRPML1 cloned into the […] plasmid pCDNA5 T/O. Mutations were introduced into the TRPML1 sequence to facilitate expression on the cell surface (Silvia Vergarajauregui, Rosa Puertollano, Traffic. 2006 March; 7(3): 337-353). Briefly, the cells are cultured in 150 mm round tissue culture dishes containing 20 mL of media. The day before the assay the cells are rinsed with DPBS-Ca—Mg and then treated briefly with Trypsin-EDTA. The Trypsin-EDTA is diluted with growth media, and cells are counted. 38×10^6 cells are re-plated into 150 mm round tissue culture dishes in media containing 0.5 ug/mL doxycycline to induce expression of hTRPML1.
# The day of the experiment cells are lifted from the plates as above and collected by centrifugation. The cells are then suspended in dye loading buffer consisting of Ringer's solution supplemented with 0.1% Pluronic Acid and 1 micromolar Fluo4-AM dye. Cells are loaded for ˜60 minutes in the dark with occasional mixing. The cells are collected by centrifugation, the loading media aspirated, and the cells resuspended in 25 mL Ringer's solution and incubated ˜60 minutes in the dark. The cells are again collected by centrifugation, rinsed in Ringer's Solution and resuspended to […] in modified Ringer's solution containing 10 mM calcium.
# Compounds are dissolved to a concentration of 10 millimolar with DMSO. Compound plates are created by dispensing compounds into 384 well black wall clear bottom plates (Greiner 781091). Positive and negative controls are included on each plate. Typically, different amounts of each compound are tested ranging from 100 nanoMoles (20 micromolar final concentration) decreasing in half-log steps to 31 picoMoles (6 nanomolar final concentration). Each concentration is typically tested in triplicate.
# 50 microliters of dye-loaded cells are dispensed into each well of the compound assay plate created above. The fluorescence in each well is then determined with an excitation wavelength of 480 nm and an emission wavelength of 540 nm using either a Molecular Devices SpectraMax multimode plate reader or a Hamamatsu FDSS/uCell plate imager.
# The resulting fluorescence for each well is exported as an ascii file and loaded into our LIMS for analysis. The percent activity of each compound at each concentration is determined by comparison to the positive and negative control wells included in each plate.
# TRPML2 and TRPML3 Assays Assays for TRPML2 and TRPML3 were performed as above for TRPML1, by substituting the appropriate TRPML2 or TRPML3 subtype for the TRPML1.
# EC50 values were calculated using a non-linear regression of Prism. In the table, “A” indicates an EC50 of less than 100 nM, “B” indicates an EC50 range from 100 nM to 500 nM; “C” indicates an EC50 range from 500 nM to 2 μM; and “D” indicates an EC50 greater than 2 μM.
# TRPML1, sequence (Q9GZU1 whole entry L15A/L16A/L577A/L578A, form open): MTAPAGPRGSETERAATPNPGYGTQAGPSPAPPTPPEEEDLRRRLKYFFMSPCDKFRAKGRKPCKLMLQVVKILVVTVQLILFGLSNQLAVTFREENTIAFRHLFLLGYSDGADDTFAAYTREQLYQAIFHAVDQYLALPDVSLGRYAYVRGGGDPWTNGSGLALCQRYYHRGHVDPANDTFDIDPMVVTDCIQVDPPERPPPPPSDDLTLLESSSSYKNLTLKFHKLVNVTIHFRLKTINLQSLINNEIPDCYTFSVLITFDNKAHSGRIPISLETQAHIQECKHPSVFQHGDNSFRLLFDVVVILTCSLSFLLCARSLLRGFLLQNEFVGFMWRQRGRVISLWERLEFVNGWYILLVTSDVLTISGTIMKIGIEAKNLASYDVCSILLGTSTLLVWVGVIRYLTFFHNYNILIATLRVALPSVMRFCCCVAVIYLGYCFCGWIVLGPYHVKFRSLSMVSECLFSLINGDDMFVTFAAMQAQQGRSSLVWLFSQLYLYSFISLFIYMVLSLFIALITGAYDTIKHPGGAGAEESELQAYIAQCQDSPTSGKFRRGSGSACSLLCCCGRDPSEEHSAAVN
SMILES,EC50 (TRPML1),EC50 (TRPML3),EC50 (TRPML2)
"C[C@@H]1CN(c2ncnc3c2c(C2CC2)cn3-c2cc(F)cc(Cl)c2)CCN1C(=O)OC(C)(C)C [Compound 123, tert-butyl (R)-4-(7-(3-chloro-5-fluorophenyl)-5-cyclopropyl-7H-pyrrolo[2,3-d]pyrimidin-4-yl)-2-methylpiperazine-1-carboxylate]",< 100 nM,< 100 nM,100 to 500 nM
"C[C@@H]1CN(c2ncnc3c2c(-c2cnccn2)cn3-c2cccc(Cl)c2)[C@@H](C)CN1C(=O)OC(C)(C)C [Compound 124, tert-butyl (2R,5S)-4-(7-(3-chlorophenyl)-5-(pyrazin-2-yl)-7H-pyrrolo[2,3-d]pyrimidin-4-yl)-2,5-dimethylpiperazine-1-carboxylate]",< 100 nM,100 to 500 nM,500 to 2000 nM
"C[C@H]1CN(C(=O)OC(C)(C)C)CCN1c1ncnc2c1c(C1CC1)cn2-c1cccc(F)c1 [Compound 127, tert-butyl (S)-4-(5-cyclopropyl-7-(3-fluorophenyl)-7H-pyrrolo[2,3-d]pyrimidin-4-yl)-3-methylpiperazine-1-carboxylate]",< 100 nM,< 100 nM,100 to 500 nM
"C[C@H]1CN(C(=O)OC(C)(C)C)CCN1c1ncnc2c1c(C1CC1)cn2-c1ccc(F)cc1 [Compound 128, tert-butyl (S)-4-(5-cyclopropyl-7-(4-fluorophenyl)-7H-pyrrolo[2,3-d]pyrimidin-4-yl)-3-methylpiperazine-1-carboxylate]",< 100 nM,< 100 nM,100 to 500 nM
"C[C@H]1CN(C(=O)OC(C)(C)C)CCN1c1ncnc2c1c(C1CC1)cn2-c1cc(Cl)cc(Cl)c1 [Compound 129, tert-butyl (S)-4-(5-cyclopropyl-7-(3,5-dichlorophenyl)-7H-pyrrolo[2,3-d]pyrimidin-4-yl)-3-methylpiperazine-1-carboxylate]",< 100 nM,< 100 nM,100 to 500 nM
"C[C@@H]1CN(c2ncnc3c2c(C2CC2)cn3-c2cccc(Cl)c2)[C@@H](C)CN1C(=O)OC(C)(C)C [Compound 130, tert-butyl (2R,5S)-4-(7-(3-chlorophenyl)-5-cyclopropyl-7H-pyrrolo[2,3-d]pyrimidin-4-yl)-2,5-dimethylpiperazine-1-carboxylate]",< 100 nM,< 100 nM,100 to 500 nM
"C[C@@H]1CN(c2ncnc3c2c(-c2cccnc2)cn3-c2cccc(Cl)c2)[C@@H](C)CN1C(=O)OC(C)(C)C [Compound 131, tert-butyl (2R,5S)-4-(7-(3-chlorophenyl)-5-(pyridin-3-yl)-7H-pyrrolo[2,3-d]pyrimidin-4-yl)-2,5-dimethylpiperazine-1-carboxylate]",< 100 nM,< 100 nM,100 to 500 nM
"CCOC(=O)N1C[C@H](C)N(c2ncnc3c2c(C2CC2)cn3-c2cccc(Cl)c2)C[C@H]1C [Compound 132, Ethyl (2R,5S)-4-(7-(3-chlorophenyl)-5-cyclopropyl-7H-pyrrolo[2,3-d]pyrimidin-4-yl)-2,5-dimethylpiperazine-1-carboxylate]",< 100 nM,100 to 500 nM,> 2000 nM
"CCOC(=O)N1C[C@H](C)N(c2ncnc3c2c(-c2cccnc2)cn3-c2cccc(Cl)c2)C[C@H]1C [Compound 133, Ethyl (2R,5S)-4-(7-(3-chlorophenyl)-5-(pyridin-3-yl)-7H-pyrrolo[2,3-d]pyrimidin-4-yl)-2,5-dimethylpiperazine-1-carboxylate]",100 to 500 nM,500 to 2000 nM,> 2000 nM
"C[C@@H]1CN(c2ncnc3c2c(-c2ccccc2F)cn3-c2ccccn2)[C@@H](C)CN1C(=O)OC(C)(C)C [Compound 134, tert-butyl (2R,5S)-4-(5-(2-fluorophenyl)-7-(pyridin-2-yl)-7H-pyrrolo[2,3-d]pyrimidin-4-yl)-2,5-dimethylpiperazine-1-carboxylate]",< 100 nM,< 100 nM,100 to 500 nM
"COc1cncc(-n2cc(-c3ccccc3F)c3c(N4C[C@@H](C)N(C(=O)OC(C)(C)C)C[C@@H]4C)ncnc32)c1 [Compound 135, tert-butyl (2R,5S)-4-(5-(2-fluorophenyl)-7-(5-methoxypyridin-3-yl)-7H-pyrrolo[2,3-d]pyrimidin-4-yl)-2,5-dimethylpiperazine-1-carboxylate]",< 100 nM,< 100 nM,100 to 500 nM
"Cc1ccnc(-n2cc(-c3ccccc3F)c3c(N4C[C@@H](C)N(C(=O)OC(C)(C)C)C[C@@H]4C)ncnc32)c1 [Compound 136, tert-butyl (2R,5S)-4-(5-(2-fluorophenyl)-7-(4-methylpyridin-2-yl)-7H-pyrrolo[2,3-d]pyrimidin-4-yl)-2,5-dimethylpiperazine-1-carboxylate]",< 100 nM,< 100 nM,< 100 nM
"CCOC(=O)N1C[C@H](C)N(c2ncnc3c2c(-c2ccccc2F)cn3-c2ccccn2)C[C@H]1C [Compound 137, ethyl (2R,5S)-4-(5-(2-fluorophenyl)-7-(pyridin-2-yl)-7H-pyrrolo[2,3-d]pyrimidin-4-yl)-2,5-dimethylpiperazine-1-carboxylate]",100 to 500 nM,100 to 500 nM,500 to 2000 nM
"CCOC(=O)N1C[C@H](C)N(c2ncnc3c2c(-c2ccccc2F)cn3-c2cncc(OC)c2)C[C@H]1C [Compound 138, ethyl (2R,5S)-4-(5-(2-fluorophenyl)-7-(5-methoxypyridin-3-yl)-7H-pyrrolo[2,3-d]pyrimidin-4-yl)-2,5-dimethylpiperazine-1-carboxylate]",500 to 2000 nM,500 to 2000 nM,500 to 2000 nM
"C[C@H]1CN(C(=O)OC(C)(C)C)CCN1c1ncnc2c1c(C1CC1)cn2-c1cccc(Cl)c1 [Compound 139, tert-butyl (S)-4-(7-(3-chlorophenyl)-5-cyclopropyl-7H-pyrrolo[2,3-d]pyrimidin-4-yl)-3-methylpiperazine-1-carboxylate]",< 100 nM,< 100 nM,< 100 nM
